Measured values as given in US20230271954A1 (Gossamer Bio Services, Inc., priority 2020, published 2023).
Counter-ions that a name gives are not always drawn.

Experiments:
DGKα = DGKα (Homo sapiens, UniProt P23743); test: DGKα biochemical assay (ADP-Glo); conditions: read-out: DGK α IC50
How it was run: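 ADP-Glo kinase assay using OAG/PS (1:2) lipid substrate, sonicated, in HEPES pH 7.0 buffer with MgCl2, CaCl2, DTT, BSA, Triton X-100. Enzyme preincubated with compound 30 min at RT; substrate with ATP (DGKα: 400 μM) added, 45 min RT. Luminescence read; % inhibition vs DMSO and no-enzyme controls.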

DGKζ = target: T1, DGKζ (Homo sapiens, UniProt Q13574); test: DGKζ biochemical assay (ADP-Glo); conditions: read-out: DGK ζ IC50
T1 construct: purchased Carna 12-110
T1 sequence (Q13574 1-929 isoform Q13574-4): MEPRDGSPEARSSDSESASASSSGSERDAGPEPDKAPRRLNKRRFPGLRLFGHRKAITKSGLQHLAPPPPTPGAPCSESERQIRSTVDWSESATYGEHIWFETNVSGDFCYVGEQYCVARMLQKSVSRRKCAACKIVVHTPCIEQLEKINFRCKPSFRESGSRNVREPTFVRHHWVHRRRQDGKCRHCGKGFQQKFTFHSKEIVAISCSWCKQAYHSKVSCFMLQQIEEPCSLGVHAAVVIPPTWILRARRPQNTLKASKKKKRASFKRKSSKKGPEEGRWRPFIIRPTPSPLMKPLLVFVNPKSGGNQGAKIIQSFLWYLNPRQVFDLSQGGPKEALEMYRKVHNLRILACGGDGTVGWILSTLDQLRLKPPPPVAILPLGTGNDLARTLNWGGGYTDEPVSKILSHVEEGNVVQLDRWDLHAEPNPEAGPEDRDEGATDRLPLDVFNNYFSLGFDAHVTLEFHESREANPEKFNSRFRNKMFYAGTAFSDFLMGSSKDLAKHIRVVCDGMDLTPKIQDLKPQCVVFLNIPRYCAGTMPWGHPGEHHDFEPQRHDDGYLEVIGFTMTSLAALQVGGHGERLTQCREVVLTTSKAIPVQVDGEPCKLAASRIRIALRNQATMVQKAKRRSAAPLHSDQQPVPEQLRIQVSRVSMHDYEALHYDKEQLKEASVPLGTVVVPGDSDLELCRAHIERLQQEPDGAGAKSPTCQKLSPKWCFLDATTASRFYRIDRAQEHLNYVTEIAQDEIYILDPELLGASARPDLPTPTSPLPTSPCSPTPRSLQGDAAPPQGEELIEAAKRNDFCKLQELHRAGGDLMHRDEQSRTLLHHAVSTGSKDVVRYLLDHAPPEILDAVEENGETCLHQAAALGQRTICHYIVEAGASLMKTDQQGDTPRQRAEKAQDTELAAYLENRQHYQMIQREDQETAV

DGKα, sequence (P23743 whole entry): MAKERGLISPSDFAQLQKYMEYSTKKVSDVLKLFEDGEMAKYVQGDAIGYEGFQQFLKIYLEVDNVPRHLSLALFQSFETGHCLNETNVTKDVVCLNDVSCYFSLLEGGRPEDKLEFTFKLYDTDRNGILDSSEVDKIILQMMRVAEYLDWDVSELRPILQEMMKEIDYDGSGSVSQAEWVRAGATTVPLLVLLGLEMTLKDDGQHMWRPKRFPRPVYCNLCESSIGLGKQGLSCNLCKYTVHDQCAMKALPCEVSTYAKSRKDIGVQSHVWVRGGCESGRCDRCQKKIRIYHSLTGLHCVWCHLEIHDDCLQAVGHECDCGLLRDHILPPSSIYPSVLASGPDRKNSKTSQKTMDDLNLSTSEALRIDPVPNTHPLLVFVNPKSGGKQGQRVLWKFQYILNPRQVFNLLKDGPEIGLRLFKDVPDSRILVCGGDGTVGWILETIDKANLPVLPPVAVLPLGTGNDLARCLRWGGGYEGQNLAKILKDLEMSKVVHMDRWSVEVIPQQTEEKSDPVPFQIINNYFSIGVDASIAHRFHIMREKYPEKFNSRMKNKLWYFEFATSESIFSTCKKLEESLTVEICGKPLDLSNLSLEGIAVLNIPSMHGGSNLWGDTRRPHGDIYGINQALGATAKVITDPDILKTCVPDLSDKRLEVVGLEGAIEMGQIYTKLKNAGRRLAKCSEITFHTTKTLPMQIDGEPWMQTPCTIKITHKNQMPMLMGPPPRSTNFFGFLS

**Q.** With `Cc1cc(F)ccc1N(CC1CC(F)(F)C1)[C@H]1CC[C@@H](N(C)c2cc(=O)n(C)c3ccc(C#N)nc23)CC1` [Example 184, cis-8-((-4-(((3,3-difluorocyclobutyl)methyl)(4-fluoro-2-methylphenyl)amino)cyclohexyl)(methyl)amino)-5-methyl-6-oxo-5,6-dihydro-1,5-naphthyridine-2-carbonitrile] as the compound, how does the IC50 (DGKα) read?
**A.** Its IC50 is 100 to 1000 nM.

**Q.** What about the IC50 (DGKζ) of the same compound?
**A.** Its IC50 is 10 to 100 nM.

**Q.** What does the source list for `Cn1c(=O)c(C#N)c(N(C)[C@H]2CC[C@H](N(CC3CCCOC3)c3ccc(F)cc3)CC2)c2nc(C#N)ccc21` (relative stereo) [Example 58, trans-8-((4-((4-fluorophenyl)((tetrahydro-2H-pyran-3-yl)methyl)amino)cyclohexyl)(methyl)amino)-5-methyl-6-oxo-5,6-dihydro-1,5-naphthyridine-2,7-dicarbonitrile]?
**A.** IC50 (DGKα): 100 to 1000 nM; IC50 (DGKζ): ≥ 1000 nM

**Q.** Which IC50 (DGKα) does the source give for `Cn1c(=O)cc(N(C)[C@H]2CC[C@@H](N(CC3CCOC3)c3ccc(F)c(OC(F)F)c3)CC2)c2nc(C#N)ccc21` (stereo partly drawn) [Example 156, cis-8-((-4-((3-(difluoromethoxy)-4-fluorophenyl) ((tetrahydrofuran-3-yl)methyl)amino)cyclohexyl) (methyl)amino)-5-methyl-6-oxo-5,6-dihydro-1,5-naphthyridine-2-carbonitrile] here?
**A.** Its IC50 is 100 to 1000 nM.

**Q.** What about the IC50 (DGKζ) of the same compound?
**A.** The IC50 was 100 to 1000 nM.

**Q.** With `O=C(N[C@H]1CC[C@@H](N(CC2CC2)c2ccccc2)CC1)c1cnn2cccnc12` [Example 4G, cis-N-(4-((Cyclopropylmethyl)(phenyl)amino)cyclohexyl) pyrazolo[1,5-a]pyrimidine-3-carboxamide] as the compound, how does the IC50 (DGKα) read?
**A.** The IC50 was at least 1000 nM.

**Q.** And the IC50 (DGKζ)?
**A.** The IC50 was at least 1000 nM.

**Q.** Which IC50 (DGKα) does the source give for `Cn1c(=O)c(C#N)c(N(C)[C@H]2CC[C@H](N(CC3CC3)c3ccc4c(c3)OCO4)CC2)c2nc(C#N)ccc21` [Example 79] here?
**A.** The IC50 was at least 1000 nM.

**Q.** And the IC50 (DGKζ)?
**A.** The IC50 was 100 to 1000 nM.

**Q.** Which results are given for `Cc1cc(F)ccc1N(CC1CN(C)CCO1)[C@H]1CC[C@H](N(C)c2c(C#N)c(=O)n(C)c3ccc(C#N)nc23)CC1` (stereo partly drawn) [Example 186, trans-8-((-4-((4-fluoro-2-methylphenyl)((4-methylmorpholinium-2-yl)methyl)amino)cyclohexyl) (methyl)amino)-5-methyl-6-oxo-5,6-dihydro-1,5-naphthyridine-2,7-dicarbonitrile trifluoroacetate]?
**A.** IC50 (DGKα): 100 to 1000 nM; IC50 (DGKζ): ≥ 1000 nM

**Q.** For `Cn1c(=O)c(C#N)c(N(C)[C@H]2CC[C@@H](N(CC3CCCOC3)c3ccc(F)cc3)CC2)c2nc(C#N)ccc21` (relative stereo) [Example 57, cis-8-((4-((4-fluorophenyl)((tetrahydro-2H-pyran-3-yl)methyl)amino)cyclohexyl)(methyl)amino)-5-methyl-6-oxo-5,6-dihydro-1,5-naphthyridine-2,7-dicarbonitrile], which IC50 (DGKα) is on record?
**A.** Its IC50 is under 10 nM.

**Q.** What about the IC50 (DGKζ) of the same compound?
**A.** Its IC50 is 10 to 100 nM.

**Q.** With `Cn1c(=O)c(C#N)c(N(C)[C@H]2CC[C@@H](N(CC3COCCO3)c3ccc4c(c3)OCO4)CC2)c2nc(C#N)ccc21` (stereo partly drawn) [Example 177, cis-8-((4-(((1,4-dioxan-2-yl)methyl)(benzo[d][1,3]dioxol-5-yl)amino)cyclohexyl)(methyl)amino)-5-methyl-6-oxo-5,6-dihydro-1,5-naphthyridine-2,7-dicarbonitrile] as the compound, how does the IC50 (DGKα) read?
**A.** Its IC50 is under 10 nM.

**Q.** And the IC50 (DGKζ)?
**A.** Its IC50 is under 10 nM.

**Q.** For `Cn1c(=O)c(C#N)c(N(C)[C@H]2CC[C@H](N(CC3CC3)c3ccc(F)c(OC(F)F)c3)CC2)c2nc(C#N)ccc21` [Example 76], which IC50 (DGKα) is on record?
**A.** Its IC50 is 100 to 1000 nM.

**Q.** What about the IC50 (DGKζ) of the same compound?
**A.** The IC50 was 100 to 1000 nM.

**Q.** What does the source list for `COc1cc(N(CC2CC2)[C@H]2CC[C@@H](N(C)c3c(C#N)c(=O)n(C)c4ccc(C#N)nc34)CC2)ccc1F` [Example 33, cis-8-((4-((cyclopropylmethyl)(4-fluoro-3-methoxyphenyl)amino)cyclohexyl)(methyl)amino)-5-methyl-6-oxo-5,6-dihydro-1,5-naphthyridine-2,7-dicarbonitrile]?
**A.** IC50 (DGKα): 100 to 1000 nM; IC50 (DGKζ): 100 to 1000 nM

**Q.** How did the IC50 (DGKα) turn out when `Cn1c(=O)c(C#N)c(N(C)[C@H]2CC[C@@H](N(CC3CCOCC3)c3ccc(F)cc3)CC2)c2nc(C#N)ccc21` [Example 53, cis-8-((-4-((4-fluorophenyl)((tetrahydro-2H-pyran-4-yl)methyl)amino)cyclohexyl)(methyl)amino)-5-methyl-6-oxo-5,6-dihydro-1,5-naphthyridine-2,7-dicarbonitrile] was run?
**A.** The IC50 was 10 to 100 nM.

**Q.** What about the IC50 (DGKζ) of the same compound?
**A.** The IC50 was 100 to 1000 nM.

**Q.** `COc1cc(F)ccc1N(CC1CC1)[C@H]1CC[C@H](N(C)c2cc(=O)n(C)c3ccc(C#N)nc23)CC1` [Example 3Y, trans-8-[[4-(N-cyclopropylmethyl-N-4-fluoro-2-methoxyphenyl-anilino)cyclohexyl]-methyl-amino]-5-methyl-6-oxo-5,6-dihydro-1,5-naphthyridine-2-carbonitrile] was tested. Which IC50 (DGKα) did it give?
**A.** Its IC50 is at least 1000 nM.

**Q.** And the IC50 (DGKζ)?
**A.** The IC50 was at least 1000 nM.

**Q.** `Cc1cc2c(cc1N(CC1CCC1)[C@H]1CC[C@H](N(C)c3c(C#N)c(=O)n(C)c4ccc(C#N)nc34)CC1)OCO2` [Example 146, trans-8-((4-((cyclobutylmethyl)(6-methylbenzo[d] [1,3]dioxol-5-yl)amino)cyclohexyl)(methyl)amino)-5-methyl-6-oxo-5,6-dihydro-1,5-naphthyridine-2,7-dicarbonitrile] was tested. Which IC50 (DGKα) did it give?
**A.** Its IC50 is 100 to 1000 nM.

**Q.** And the IC50 (DGKζ)?
**A.** The IC50 was 100 to 1000 nM.

**Q.** What does the source list for `Cn1c(=O)c(C#N)c(N(C)[C@H]2CC[C@H](N(CC3CC3)c3cccc(F)c3)CC2)c2nc(C#N)ccc21` [Example 27, trans-8-((4-((cyclopropylmethyl)(3-fluorophenyl)amino)cyclohexyl)(methyl)amino)-5-methyl-6-oxo-5,6-dihydro-1,5-naphthyridine-2,7-dicarbonitrile]?
**A.** IC50 (DGKα): 100 to 1000 nM; IC50 (DGKζ): 100 to 1000 nM

**Q.** For `Cc1ccccc1N(CC1CC1)[C@H]1CC[C@H](N(C)c2c(C#N)c(=O)n(C)c3ccc(C#N)nc23)CC1` [Example 71, trans-8-((4-((cyclopropylmethyl)(o-tolyl)amino)cyclohexyl)(methyl)amino)-5-methyl-6-oxo-5,6-dihydro-1,5-naphthyridine-2,7-dicarbonitrile], which IC50 (DGKα) is on record?
**A.** The IC50 was at least 1000 nM.

**Q.** And the IC50 (DGKζ)?
**A.** Its IC50 is 10 to 100 nM.

**Q.** `Cn1c(=O)c([N+](=O)[O-])c(N2CCC(N(CC3(C)COC3)c3ccccc3)CC2)c2nc(C#N)ccc21` [Example 1D, 5-Methyl-8-(4-(((3-methyloxetan-3-yl)methyl)(phenyl)amino)piperidin-1-yl)-7-nitro-6-oxo-5,6-dihydro-1,5-naphthyridine-2-carbonitrile] was tested. Which IC50 (DGKα) did it give?
**A.** Its IC50 is 100 to 1000 nM.

**Q.** What about the IC50 (DGKζ) of the same compound?
**A.** Its IC50 is at least 1000 nM.

**Q.** How did the IC50 (DGKα) turn out when `Cn1c(=O)c(C#N)c(N(C)[C@H]2CC[C@@H](N(CC3CCCOC3)c3ccc4c(c3)OCO4)CC2)c2nc(C#N)ccc21` (stereo partly drawn) [Example 116, cis-8-((-4-(benzo[d][1,3]dioxol-5-yl((tetrahydro-2H-pyran-3-yl)methyl)amino)cyclohexyl)(methyl)amino)-5-methyl-6-oxo-5,6-dihydro-1,5-naphthyridine-2,7-dicarbonitrile] was run?
**A.** The IC50 was under 10 nM.

**Q.** And the IC50 (DGKζ)?
**A.** The IC50 was 10 to 100 nM.

**Q.** With `Cc1cc(F)ccc1N(CC1CC1)[C@H]1CC[C@@H](N(C)c2cc(=O)n(C)c3ccc(C#N)nc23)CC1` [Example 144, cis-8-((4-((cyclopropylmethyl)(4-fluoro-2-methylphenyl)amino)cyclohexyl)(methyl)amino)-5-methyl-6-oxo-5,6-dihydro-1,5-naphthyridine-2-carbonitrile] as the compound, how does the IC50 (DGKα) read?
**A.** The IC50 was 100 to 1000 nM.

**Q.** What about the IC50 (DGKζ) of the same compound?
**A.** The IC50 was 100 to 1000 nM.

**Q.** Which results are given for `Cn1c(=O)c(C#N)c(N(C)[C@H]2CC[C@@H](N(CC3CC3)c3ccc(F)c(OC4CC4)c3)CC2)c2nc(C#N)ccc21` [Example 123, cis-8-((-4-((3-cyclopropoxy-4-fluorophenyl) (cyclopropylmethyl)amino)cyclohexyl)(methyl)amino)-5-methyl-6-oxo-5,6-dihydro-1,5-naphthyridine-2,7-dicarbonitrile]?
**A.** IC50 (DGKα): 10 to 100 nM; IC50 (DGKζ): 10 to 100 nM

**Q.** Which IC50 (DGKα) does the source give for `Cn1c(=O)c(C#N)c(N(C)[C@H]2CC[C@@H](N(CC3CC3)c3ccc(Cl)cc3)CC2)c2nc(C#N)ccc21` [Example 35, cis-8-((4-((4-chlorophenyl)(cyclopropylmethyl)amino)cyclohexyl)(methyl)amino)-5-methyl-6-oxo-5,6-dihydro-1,5-naphthyridine-2,7-dicarbonitrile] here?
**A.** Its IC50 is under 10 nM.

**Q.** And the IC50 (DGKζ)?
**A.** The IC50 was at least 1000 nM.

**Q.** `Cn1c(=O)cc(N(C)[C@H]2CC[C@@H](N(CC3CCC3)c3ccc4c(c3)OC(F)(F)O4)CC2)c2nc(C#N)ccc21` [Example 133, cis-8-((-4-((cyclobutylmethyl)(2,2-difluorobenzo[d] [1,3]dioxol-5-yl)amino)cyclohexyl)(methyl)amino)-5-methyl-6-oxo-5,6-dihydro-1,5-naphthyridine-2-carbonitrile] was tested. Which IC50 (DGKα) did it give?
**A.** The IC50 was 10 to 100 nM.

**Q.** And the IC50 (DGKζ)?
**A.** The IC50 was 100 to 1000 nM.

**Q.** For `Cn1c(=O)c(C#N)c(N(C)[C@H]2CC[C@H](N(CC3CC3)c3cc(F)cc(F)c3)CC2)c2nc(C#N)ccc21` [Example 86], which IC50 (DGKα) is on record?
**A.** Its IC50 is 100 to 1000 nM.

**Q.** What about the IC50 (DGKζ) of the same compound?
**A.** The IC50 was 100 to 1000 nM.

**Q.** Which results are given for `Cn1c(=O)cc(N(C)[C@H]2CC[C@H](N(CC3CC3)c3ccc4c(c3)OCO4)CC2)c2nc(C#N)ccc21` [Example 88]?
**A.** IC50 (DGKα): ≥ 1000 nM; IC50 (DGKζ): ≥ 1000 nM

**Q.** What does the source list for `Cn1c(=O)c(C#N)c(N(C)[C@H]2CC[C@@H](N(CC3CC3)c3ccc4c(c3)COC4)CC2)c2nc(C#N)ccc21` [Example 193, cis-8-((4-((cyclopropylmethyl)(1,3-dihydroisobenzofuran-5-yl)amino)cyclohexyl) (methyl)amino)-5-methyl-6-oxo-5,6-dihydro-1,5-naphthyridine-2,7-dicarbonitrile]?
**A.** IC50 (DGKα): ≥ 1000 nM; IC50 (DGKζ): ≥ 1000 nM

**Q.** What does the source list for `Cc1cc(N(CC2CCC2)[C@H]2CC[C@@H](N(C)c3cc(=O)n(C)c4ccc(C#N)nc34)CC2)ccc1F` [Example 92]?
**A.** IC50 (DGKα): 10 to 100 nM; IC50 (DGKζ): 100 to 1000 nM

**Q.** For `CN1C(=O)COc2ccc(N(CC3CC3)[C@H]3CC[C@@H](N(C)c4cc(=O)n(C)c5ccc(C#N)nc45)CC3)cc21` [Example 197, cis-8-((4-((cyclopropylmethyl)(4-methyl-3-oxo-3,4-dihydro-2H-benzo[b][1,4]oxazin-6-yl)amino)cyclohexyl)(methyl)amino)-5-methyl-6-oxo-5,6-dihydro-1,5-naphthyridine-2-carbonitrile], which IC50 (DGKα) is on record?
**A.** Its IC50 is 100 to 1000 nM.

**Q.** What about the IC50 (DGKζ) of the same compound?
**A.** Its IC50 is at least 1000 nM.
